# Article PMC8072719, “Synthesis and Antiproliferative Activity of Triazoles Based on 2-Azabicycloalkanes” (Materials, 2021)
# Where two headings read alike, the source gives them in different places.
# Tests used:
# Hs294T = assay: Growth inhibition assay (SRB assay), melanoma cell line Hs294T; assay type: cell-based, human; settings: Homo sapiens, Hs 294T, 72 h, mean ± SD
# Experimental: (§1) Three human cancer cell lines were used to evaluate the antiproliferative activity of the obtained compounds: melanoma cell line Hs294T, pancreatic tumor cell line MIA PaCa-2, and lung tumor cell line NCI-H1581. The normal mouse fibroblasts cell line (BALB/3T3 clone A31) was selected as reference. All these lines were purchased from the ATCC (American Type Culture Collection, Rockville, MD, USA). NCI-H1581 cells were grown in RPMI 1640 with GlutaMax medium (Gibco, Thermo Fisher Scientific, Leicestershire, UK) with 5% fetal bovine serum (FBS; HyClone, GE Healthcare, Logan, UT, USA). Hs294T and BALB/3T3 cells were grown in Dulbecco’s Modified Eagle Medium (DMEM; Gibco, Thermo Fisher Scientific, Leicestershire, UK) supplemented with 2 mM L-glutamine and 10% FBS (HyClone, GE Healthcare, Logan, UT, USA). MIA PaCa-2 cells were grown in DMEM (Gibco, Thermo Fisher Scientific, Leicestershire, UK) supplemented with 2 mM L-glutamine, 2.5% Horse Serum (Gibco, Thermo Fisher Scientific, Leicestershire, UK), and 10% FBS (HyClone, GE Healthcare, Logan, UT, USA). All culture media were supplemented with antibiotics: 100 U/mL penicillin (Polfa Tarchomin SA, Warsaw, Poland) and 100 µg/mL streptomycin (Sigma-Aldrich Chemie GmbH, Steinheim, Germany); cells were grown at 37 °C in a humid atmosphere with 5% CO2.
# (§2) Twenty-four hours prior to the addition of the tested compounds, 2000 cells per well of Balb/3T3, MIA PaCa-2, and Hs294T cell lines and 2500 cells of NCI-H1581 cell line were seeded in 384-well plates (Greiner Bio-One, Kremsmünster, Austria) in an appropriate medium. The studied compounds were added to the cells at 8 different concentrations in a series of dilutions from 100 to 0.00001 µg/mL for 72 h. Cisplatin was applied as a reference compound (Teva Pharmaceuticals, Warsaw, Poland). DMSO (Sigma-Aldrich Chemie GmbH, Steinheim, Germany) was used as solvent control. The DMSO concentrations corresponded to the solvent concentrations in the tested compound solutions. Then, 30 µL per well of ice-cold 50% TCA (trichloroacetic acid, Avantor, Gliwice, Poland) was added to the cells. After one hour of incubation at room temperature (RT) cells were washed five times with water and stained with 0.4% SRB (sulforhodamine B, Sigma-Aldrich Chemie GmbH, Steinheim, Germany). Twenty-five microliters per well of 0.4% solution of SRB in 1% acetic acid (Avantor, Gliwice, Poland) was applied. After 0.5 h of incubation at RT, the unbound dye was washed out with 1% acetic acid. The bound dye in each well was dissolved in 70 µl of 10 mM TRIS (Tris base, Sigma-Aldrich, Chemie GmbH, Steinheim, Germany). A microplate reader (BioTek Synergy H4, Swindon, UK) with Gen5 software was used to read the absorbance at 540 nm. The results are presented as mean IC50 values (concentration of the compound that inhibits cell proliferation by 50%) ± standard deviation. Half-maximal inhibitory concentration (IC50) values were calculated using the Prolab-3 system based on Cheburator 0.4 [22]. Each experiment was performed in triplicate, and three independent repetitions were made for each experiment. Raw data and IC50 values were placed in the supplementary materials.
# NCI-H1581 = assay: Growth inhibition assay (SRB assay), lung tumor cell line NCI-H1581; assay type: cell-based, human; settings: for IC50: 72 h, SRB, mean ± SD; for SI (Selectivity Index): SI = IC50 for normal cell line BALB/3T3 / IC50 for NCI-H1581
# Experimental: as §1, §2
# MIA PaCa-2 = assay: Growth inhibition assay (SRB assay), pancreatic tumor cell line MIA PaCa-2; assay type: cell-based, human; settings: Homo sapiens, mean ± SD
# Experimental: as §1, §2
# BALB/3T3 clone A31 = assay: Growth inhibition assay (SRB assay), normal fibroblasts BALB/3T3 clone A31; assay type: cell-based, mouse; settings: Mus musculus, BALB/3T3 clone A31, 72 h, mean ± SD
# Experimental: as §1, §2
# [1] = supplement, read-out: IC50 Hs294T (raw data)
# [2] = Homo sapiens, NCI-H1581, 72 h, read-out: IC50 NCI-H1581
# [3] = Homo sapiens, NCI-H1581, 72 h, supplement, read-out: IC50 NCI-H1581 (raw data)
# [4] = MIA PaCa-2, 72 h, read-out: IC50 MIA PaCa-2
# [5] = MIA PaCa-2, supplement, 72 h, read-out: IC50 MIA PaCa-2 (raw data)
# [6] = normal cell line, read-out: IC50 BALB3T3
# [7] = supplement, read-out: IC50 BALB3T3 (raw data)
# [8] = supplement, read-out: IC50 Hs294T (non-rounded data)
# [9] = Homo sapiens, NCI-H1581, 72 h, supplement, read-out: IC50 NCI-H1581 (non-rounded data)
# [10] = MIA PaCa-2, supplement, 72 h, read-out: IC50 MIA PaCa-2 (non-rounded data)
# [11] = supplement, read-out: IC50 BALB3T3 (non-rounded data)
IC50 (Hs294T; read-out: IC50 Hs294T),IC50 (Hs294T; [1]),IC50 (NCI-H1581; [2]),IC50 (NCI-H1581; [3]),IC50 (MIA PaCa-2; [4]),IC50 (MIA PaCa-2; [5]),IC50 (NCI-H1581; read-out: IC50 NCI-H1581),IC50 (Hs294T; [8]),IC50 (NCI-H1581; [9]),IC50 (MIA PaCa-2; [10]),Compound,SI (Selectivity Index) (NCI-H1581),IC50 (BALB/3T3 clone A31; [6]),IC50 (BALB/3T3 clone A31; [7]),IC50 (BALB/3T3 clone A31; [11])
9.52 ± 2.51 µM,3.49 ± 0.92 µg/mL,7.91 ± 1.2 µM,2.9 ± 0.44 µg/mL,87.7 ± 1.66 µM,32.1 ± 0.61 µg/mL,–,–,–,–,"C=CC(=O)OCc1cn([C@@H]2CN([C@@H](C)c3ccccc3)[C@H]3CC[C@@H]2C3)nn1 [Compound 4, (1-((1S,4S,5R)-2-((S)-1-phenylethyl)-2-azabicyclo[3.2.1]octan-4-yl)-1H-1,2,3-triazol-4-yl)methyl acrylate]",0.2,1.75 ± 0.76 µM,0.64 ± 0.28 µg/mL,–
10.3 ± 3.39 µM,6.26 ± 2.05 µg/mL,4.2 ± 0.36 µM,2.54 ± 0.22 µg/mL,40.2 ± 1.6 µM,24.3 ± 0.97 µg/mL,–,–,–,–,"C[C@@H](c1ccccc1)N1C[C@@H](n2cc(CCCc3cn([C@@H]4CN([C@@H](C)c5ccccc5)[C@H]5CC[C@@H]4C5)nn3)nn2)[C@@H]2CC[C@H]1C2 [Compound 10, 1,3-Bis-(1-((1S,4S,5R)-2-((S)-1-phenylethyl)-2-azabicyclo[3.2.1]octan-4-yl)-1H-1,2,3-triazol-4-yl) propane]",3,11.8 ± 5.03 µM,7.17 ± 3.04 µg/mL,–
88.5 ± 9.41 µM,27.6 ± 2.93 µg/mL,11.3 ± 1.25 µM,3.51 ± 0.39 µg/mL,99.9 ± 4.46 µM,31.1 ± 1.39 µg/mL,–,–,–,–,"C[C@@H](c1ccccc1)N1C[C@@H](n2cc(CN)nn2)[C@@H]2CC[C@H]1C2 [Compound 3, (1-((1S,4S,5R)-2-((S)-1-phenylethyl)-2-azabicyclo[3.2.1]octan-4-yl)-1H-1,2,3-triazol-4-yl)methanamine]",8,94.4 ± 1.89 µM,29.4 ± 0.59 µg/mL,–
20.8 ± 5.02 µM,18.8 ± 4.52 µg/mL,2.4 µM,2.2 ± 0.06 µg/mL,25.7 ± 0.26 µM,23.11 ± 0.23 µg/mL,2.44 ± 0.07 µM,–,–,–,"C[C@@H](c1ccccc1)N1C[C@@H](n2cc(CN(Cc3cn([C@@H]4CN([C@@H](C)c5ccccc5)[C@H]5CC[C@@H]4C5)nn3)Cc3cn([C@@H]4CN([C@@H](C)c5ccccc5)[C@H]5CC[C@@H]4C5)nn3)nn2)[C@@H]2CC[C@H]1C2 [Compound 18, N,N,N-tri((1-((1S,4S,5R)-2-((S)-1-phenylethyl)-2-azabicyclo[3.2.1]octan-4-yl)-1H-1,2,3-triazol-4-yl)methyl) amine]",–,23.1 ± 2.72 µM,20.8 ± 2.45 µg/mL,–
> 100 µM,> 100 µM,> 100 µM,> 100 µM,> 100 µM,> 100 µM,–,> 100 µM,> 100 µM,> 100 µM,"C[C@@H](c1ccccc1)N1C[C@@H](n2cc(CO)nn2)[C@@H]2CC[C@H]1C2 [Compound 1, (1-((1S,4S,5R)-2-((S)-1-phenylethyl)-2-azabicyclo[3.2.1]octan-4-yl)-1H-1,2,3-triazol-4-yl)methanol]",–,> 100 µM,> 100 µM,> 100 µM
> 100 µM,> 100 µM,> 100 µM,> 100 µM,> 100 µM,> 100 µM,–,> 100 µM,> 100 µM,> 100 µM,"C[C@@H](c1ccccc1)N1C[C@H](n2cc(-c3cccc(-c4cn([C@H]5CN([C@@H](C)c6ccccc6)[C@H]6CC[C@@H]5C6)nn4)c3)nn2)[C@@H]2CC[C@H]1C2 [Compound 17, 1,3-Bis-(1-((1S,4R,5R)-2-((S)-1-phenylethyl)-2-azabicyclo[3.2.1]octan-4-yl)-1H-1,2,3-triazol-4-yl) benzene]",–,> 100 µM,> 100 µM,> 100 µM
